Source: patent US8580832B2, “Substituted phenoxy aminothiazolones as estrogen related receptor-α modulators” (Janssen Pharmaceutica N.V., priority 2007, dated 2013)
Structures can show the parent of a compound that is named as a salt.

Molecular target: T1, ERR1 (also known as ERR-α or ERR-1) (Homo sapiens, UniProt P11474)
T1 construct: the ^6His-tagged-ERR1 LBD
T1 sequence (P11474 193-421 limits assumed): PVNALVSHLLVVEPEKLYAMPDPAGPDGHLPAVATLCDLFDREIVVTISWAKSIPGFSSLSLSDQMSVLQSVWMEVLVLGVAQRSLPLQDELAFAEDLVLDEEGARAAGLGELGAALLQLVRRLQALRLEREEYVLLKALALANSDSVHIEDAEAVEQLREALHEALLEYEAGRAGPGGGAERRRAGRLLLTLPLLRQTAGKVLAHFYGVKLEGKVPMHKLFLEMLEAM
Assay: TR-FRET assay: disruption of co-activator peptide binding to ERR1 LBD
Format: biochemical
Conditions: 6His-tagged ERR1 LBD 6 nM, GST-SRC-2 peptide 6 nM, 25° C., 4-18 hours; average of 3 independent experiments
Outline: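 The 6His-ERR1 LBD and a GST-hSRC2 co-activator peptide were detected by α-GST Eu cryptate and α-6His-XL665 TR-FRET. Buffer was 25 mM Tris pH 8, 2.5 mM Hepes, 20 mM KCl, 1 mM DTT, 0.05 mg/mL BSA, equilibrated 4-18 h at 25° C. Dose-response curves were fitted hyperbolically and averaged over 3 independent experiments.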

Compound | EC50 [nM]
COc1cc(/C=C2\SC(N(C)C)=NC2=O)ccc1Oc1ccc(C#N)cc1C(F)(F)F [Example 81, 4-[4-(2-Dimethylamino-4-oxo-4H-thiazol-5-ylidenemethyl)-2-methoxy-phenoxy]-3-trifluoromethyl-benzonitrile] | 17
COC(=O)CC1CCN(C2=NC(=O)/C(=C/c3ccc(Oc4ccc(C#N)cc4C(F)(F)F)c(OC)c3)S2)CC1 [Example 83, (1-{5-[4-(4-Cyano-2-trifluoromethyl-phenoxy)-3-methoxy-benzylidene]-4-oxo-4,5-dihydro-thiazol-2-yl}-piperidin-4-yl)-acetic acid methyl ester] | 26
COc1cc(/C=C2\SC(NCc3cc(F)cc(F)c3)=NC2=O)ccc1Oc1ccc(C#N)cc1C(F)(F)F [Example 85, 4-{4-[2-(3,5-Difluoro-benzylamino)-4-oxo-4H-thiazol-5-ylidenemethyl]-2-methoxy-phenoxy}-3-trifluoromethyl-benzonitrile] | 57
COc1cc(/C=C2\SC(N3CCC(N(C)C)CC3)=NC2=O)ccc1Oc1ccc(C#N)cc1C(F)(F)F [Example 86, 4-{4-[2-(4-Dimethylamino-piperidin-1-yl)-4-oxo-4H-thiazol-5-ylidenemethyl]-2-methoxy-phenoxy}-3-trifluoromethyl-benzonitrile] | 10
COc1cc(/C=C2\SC(N3CC[C@@H](F)C3)=NC2=O)ccc1Oc1ccc(C#N)cc1C(F)(F)F [Example 90, 4-{4-[2-(3-Fluoro-pyrrolidin-1-yl)-4-oxo-4H-thiazol-5-ylidenemethyl]-2-methoxy-phenoxy}-3-trifluoromethyl-benzonitrile] | 13
N#Cc1ccc(Oc2ccc(/C=C3\SC(NCCF)=NC3=O)cc2F)c(C(F)(F)F)c1 [Example 96, 4-{2-Fluoro-4-[2-(2-fluoro-ethylamino)-4-oxo-4H-thiazol-5-ylidenemethyl]-2-fluoro-phenoxy}-3-trifluoromethyl-benzonitrile] | 25
N#Cc1ccc(Oc2ccc(/C=C3\SC(NCC(F)F)=NC3=O)cc2F)c(C(F)(F)F)c1 [Example 97, 4-{4-[2-(2,2-Difluoro-ethylamino)-4-oxo-4H-thiazol-5-ylidenemethyl]-2-fluoro-phenoxy}-3-trifluoromethyl-benzonitrile] | 40
N#Cc1ccc(Oc2ccc(/C=C3\SC(NCCn4cncn4)=NC3=O)cc2F)c(C(F)(F)F)c1 [Example 98, 4-{2-Fluoro-4-[4-oxo-2-(2-[1,2,4]triazol-1-yl-ethylamino)-4H-thiazol-5-ylidenemethyl]-phenoxy}-3-trifluoromethyl-benzonitrile] | 17
COc1cc(/C=C2\SC(N3CCCC(O)C3)=NC2=O)ccc1Oc1ccc(C#N)cc1C(F)(F)F (centres unmarked) [Example 102, 4-{4-[2-(3-Hydroxy-piperidin-1-yl)-4-oxo-4H-thiazol-5-ylidenemethyl]-2-methoxy-phenoxy}-3-trifluoromethyl-benzonitrile] | 29
N#Cc1ccc(Oc2ccc(/C=C3\SC(N4CCCC(O)C4)=NC3=O)cc2F)c(C(F)(F)F)c1 (centres unmarked) [Example 103, 4-{2-Fluoro-4-[2-(3-hydroxy-piperidin-1-yl)-4-oxo-4H-thiazol-5-ylidenemethyl]-phenoxy}-3-trifluoromethyl-benzonitrile] | 47
COc1cc(/C=C2\SC(N3CC(C(=O)O)C3)=NC2=O)ccc1Oc1ccc(C#N)cc1C(F)(F)F [Example 106, 1-{5-[4-(4-Cyano-2-trifluoromethyl-phenoxy)-3-methoxy-benzylidene]-4-oxo-4,5-dihydro-thiazol-2-yl}-azetidine-3-carboxylic acid] | 3
N#Cc1ccc(Oc2ccc(/C=C3\SC(NCc4nnn[nH]4)=NC3=O)cc2F)c(C(F)(F)F)c1 [Example 108, 4-(2-Fluoro-4-{4-oxo-2-[(1H-tetrazol-5-ylmethyl)-amino]-4H-thiazol-5-ylidenemethyl}-phenoxy)-3-trifluoromethyl-benzonitrile] | 10
N#Cc1ccc(Oc2ccc(/C=C3\SC(NCCC4CCOCC4)=NC3=O)cc2F)c(C(F)(F)F)c1 [Example 110, 4-(2-Fluoro-4-{4-oxo-2-[2-(tetrahydro-pyran-4-yl)-ethylamino]-4H-thiazol-5-ylidenemethyl}-phenoxy)-3-trifluoromethyl-benzonitrile] | 26

Further lines, results first:

EC50 [nM] | Compound
55 | COC(=O)CCCNC1=NC(=O)/C(=C/c2ccc(Oc3ccc(C#N)cc3C(F)(F)F)c(OC)c2)S1 [Example 82, 4-{5-[4-(4-Cyano-2-trifluoromethyl-phenoxy)-3-methoxy-benzylidene]-4-oxo-4,5-dihydro-thiazol-2-ylamino}-butyric acid methyl ester]
7 | COC(=O)CNC1=NC(=O)/C(=C/c2ccc(Oc3ccc(C#N)cc3C(F)(F)F)c(OC)c2)S1 [Example 84, {5-[4-(4-Cyano-2-trifluoromethyl-phenoxy)-3-methoxy-benzylidene]-4-oxo-4,5-dihydro-thiazol-2-ylamino}-acetic acid methyl ester]
22 | COc1cc(/C=C2\SC(NCCN)=NC2=O)ccc1Oc1ccc(C#N)cc1C(F)(F)F [Example 87, 4-{4-[2-(2-Amino-ethylamino)-4-oxo-4H-thiazol-5-ylidenemethyl]-2-methoxy-phenoxy}-3-trifluoromethyl-benzonitrile HCl salt]
15 | COc1cc(/C=C2\SC(NCc3ccoc3)=NC2=O)ccc1Oc1ccc(C#N)cc1C(F)(F)F [Example 88, 4-(4-{2-[(Furan-3-ylmethyl)-amino]-4-oxo-4H-thiazol-5-ylidenemethyl}-2-methoxy-phenoxy)-3-trifluoromethyl-benzonitrile]
25 | COc1cc(/C=C2\SC(NCc3ccsc3)=NC2=O)ccc1Oc1ccc(C#N)cc1C(F)(F)F [Example 89, 4-(2-Methoxy-4-{4-oxo-2-[(thiophen-3-ylmethyl)-amino]-4H-thiazol-5-ylidenemethyl}-phenoxy)-3-trifluoromethyl-benzonitrile]
9 | COc1cc(/C=C2\SC(NCCF)=NC2=O)ccc1Oc1ccc(C#N)cc1C(F)(F)F [Example 91, 4-{4-[2-(2-Fluoro-ethylamino)-4-oxo-4H-thiazol-5-ylidenemethyl]-2-methoxy-phenoxy}-3-trifluoromethyl-benzonitrile]
6 | COc1cc(/C=C2\SC(NCC(F)F)=NC2=O)ccc1Oc1ccc(C#N)cc1C(F)(F)F [Example 92, 4-{4-[2-(2,2-Difluoro-ethylamino)-4-oxo-4H-thiazol-5-ylidenemethyl]-2-methoxy-phenoxy}-3-trifluoromethyl-benzonitrile]
8 | COc1cc(/C=C2\SC(N3CCN(C)C(=O)C3)=NC2=O)ccc1Oc1ccc(C#N)cc1C(F)(F)F [Example 94, 4-{2-Methoxy-4-[2-(4-methyl-3-oxo-piperazin-1-yl)-4-oxo-4H-thiazol-5-ylidenemethyl]-phenoxy}-3-trifluoromethyl-benzonitrile]
89 | COc1cc(/C=C2\SC(NCC(O)CN)=NC2=O)ccc1Oc1ccc(C#N)cc1C(F)(F)F (centres unmarked) [Example 95, 4-{4-[2-(3-Amino-2-hydroxy-propylamino)-4-oxo-4H-thiazol-5-ylidenemethyl]-2-methoxy-phenoxy}-3-trifluoromethyl-benzonitrile]
18 | N#Cc1ccc(Oc2ccc(/C=C3\SC(NCCN4CCNC(=O)C4)=NC3=O)cc2F)c(C(F)(F)F)c1 [Example 99, 4-(2-Fluoro-4-{4-oxo-2-[2-(3-oxo-piperazin-1-yl)-ethylamino]-4H-thiazol-5-ylidenemethyl}-phenoxy)-3-trifluoromethyl-benzonitrile]
31 | N#Cc1ccc(Oc2ccc(/C=C3\SC(NCCCN4CCNC(=O)C4)=NC3=O)cc2F)c(C(F)(F)F)c1 [Example 100, 4-(2-Fluoro-4-{4-oxo-2-[3-(3-oxo-piperazin-1-yl)-propylamino]-4H-thiazol-5-ylidenemethyl}-phenoxy)-3-trifluoromethyl-benzonitrile]
11 | COc1cc(/C=C2\SC(NCCCN3CCNC(=O)C3)=NC2=O)ccc1Oc1ccc(C#N)cc1C(F)(F)F [Example 101, 4-(2-Methoxy-4-{4-oxo-2-[3-(3-oxo-piperazin-1-yl)-propylamino]-4H-thiazol-5-ylidenemethyl}-phenoxy)-3-trifluoromethyl-benzonitrile]
22 | CN1CCN(CCNC2=NC(=O)/C(=C/c3ccc(Oc4ccc(C#N)cc4C(F)(F)F)c(F)c3)S2)CC1 [Example 104, 4-(2-Fluoro-4-{2-[2-(4-methyl-piperazin-1-yl)-ethylamino]-4-oxo-4H-thiazol-5-ylidenemethyl}-phenoxy)-3-trifluoromethyl-benzonitrile]
8 | COc1cc(/C=C2\SC(NCCN3CCNC(=O)C3)=NC2=O)ccc1Oc1ccc(C#N)cc1C(F)(F)F [Example 105, 4-(2-Methoxy-4-{4-oxo-2-[2-(3-oxo-piperazin-1-yl)-ethylamino]-4H-thiazol-5-ylidenemethyl}-phenoxy)-3-trifluoromethyl-benzonitrile]
5 | COc1cc(/C=C2\SC(NCc3nnn[nH]3)=NC2=O)ccc1Oc1ccc(C#N)cc1C(F)(F)F [Example 107, 4-(2-Methoxy-4-{4-oxo-2-[(1H-tetrazol-5-ylmethyl)-amino]-4H-thiazol-5-ylidenemethyl}-phenoxy)-3-trifluoromethyl-benzonitrile]
5 | COc1cc(/C=C2\SC(NCCC3CCOCC3)=NC2=O)ccc1Oc1ccc(C#N)cc1C(F)(F)F [Example 109, 4-(2-Methoxy-4-{4-oxo-2-[2-(tetrahydro-pyran-4-yl)-ethylamino]-4H-thiazol-5-ylidenemethyl}-phenoxy)-3-trifluoromethyl-benzonitrile]
